Source: article PMC7037052, “Predicting the Blood-Brain Barrier Permeability of New Drug-Like Compounds via HPLC with Various Stationary Phases” (Molecules, 2020)

Tests used:
[1] = design: method as in PMID 16331406; settings: rats; BB = Cbrain/Cplasma; training set; cited from earlier work
normal Vero cells = tested on: normal Vero cells; design: method as in PMID 30807815; settings: cited from earlier work
[2] = RP-HPLC retention on IAM.PC.DD2 (immobilized artificial membrane) column, buffer pH 7.4-acetonitrile; assay type: physicochemical; settings: for log kw, IAM: extrapolated to buffer pH 7.4 as mobile phase, 25 °C; for s IAM: slope of Soczewiński-Wachtmeister equation, acetonitrile φ 0.2–0.5
Protocol: (§1) Retention parameters reported as the log k values were calculated by the expression:(1) logk=log(tR−t0)/t0 where tR and t0 are the retention times of the solute and a non-retained compound (citric acid), respectively. They were used to calculate the log kw values, i.e., logarithms of retention parameter in the buffer as the mobile phase. For this purpose the Soczewiński-Wachtmeister’s equation was used:log k = log kw − sφ(2) where φ is the volume fraction of organic modifier in the mobile phase; k and kw are retention parameters corresponding to mixed effluent and buffer as the mobile phase, respectively. The slope s is characteristic of a given solute and chromatographic system. Strong linear relationships between log k and φ values were found for all the compounds in the range of effluent composition examined (R^2 > 0.9). The log kw values determined for the ODS (log kw, ODS), IAM (log kw, IAM) and Cholester (log kw, Cholester) columns were intercorrelated and the following linear relationships with a very good statistical quality were obtained:log kw, ODS = 0.691(± 0.094) + 0.982(± 0.044) log kw, IAM(3) SD = 0.257; R^2 = 0.8880; N = 65 log kw, ODS = 0.911(± 0.062) + 0.765(± 0.025) log kw, Cholester(4) SD = 0.192; R^2 = 0.9371; N = 65 log kw, IAM = 0.356(± 0.073) + 0.721(± 0.029) log kw, Cholester(5) SD = 0.224; R^2 = 0.9068; N = 65
(§2) Shimadzu Vp (Shimadzu, Izabelin, Poland) liquid chromatographic system equipped with LC 10AT pump, SPD 10A UV-Vis detector, SCL 10A system controller, CTO-10 AS chromatographic oven and Rheodyne injector valve with a 20 µL loop was applied in HPLC measurements. Three stationary phases were employed: • Purosphere RP-18e (ODS), 125 × 4 mm i.d., 5 µm (Merck); • IAM.PC.DD2 100 × 4.6 mm i.d., 10 µm (Regis Chemicals Company, Morton Grove, IL, USA); • Cosmosil Cholester, 75 × 2 mm i.d., 2.5 µm (Genore, Warsaw, Poland).
(§3) As mobile phases buffer-acetonitrile mixtures were used. The buffer was prepared from 0.01 mol L^−1 solutions of Na2HPO4 and citric acid and the pH 7.4 value was fixed before mixing with organic modifier. With the ODS column acetonitrile concentration in the effluent, expressed as a volume fraction (φ, v/v), was changed in the range 0.3–0.6, with the constant step of 0.1. The flow rate was 1 mL min^−1. With the IAM column acetonitrile concentration was changed in the range 0.2–0.5, also with the constant step of 0.1 and the flow rate was 1.3 mL min^−1. With the Cosmosil Cholester column acetonitrile concentration was changed in the range 0.4–0.6, with the constant step of 0.05 and the flow rate was 0.4 mL min^−1. Samples of test compounds were dissolved in acetonitrile—c.a. 0.005 mg mL^−1. […] They were detected under UV light at 210 and 254 nm. All measurements were carried out at 25 °C. The dead time values were measured from non-retained compound (citric acid) peaks. All reported log kw values are the average of at least three independent measurements. The extrapolated retention coefficients (logs kw) achieved by HPLC on ODS, IAM and Cholester stationary phases were used for modelling the log BB permeation of 65 drug-like compounds employed as a whole test set (Table 1).

[3] = RP-HPLC retention on Purosphere RP-18e (ODS) column, buffer pH 7.4-acetonitrile; assay type: physicochemical; settings: for log kw, ODS: extrapolated to buffer pH 7.4 as mobile phase, 25 °C; for s ODS: slope of Soczewiński-Wachtmeister equation, acetonitrile φ 0.3–0.6
Protocol: as §1, §2, §3

normal cells = tested on: normal cells; design: method as in doi:10.1016/j.arabjc.2016.12.024, PMID 24126095; settings: cited from earlier work
human cancer cells = tested on: human cancer cells; design: method as in doi:10.1016/j.arabjc.2016.12.024, PMID 24126095; settings: cited from earlier work
[4] = tested on: Herpes simplex virus type 1; design: method as in PMID 30807815; settings: cited from earlier work
erythrocytes = tested on: erythrocytes; design: method as in PMID 30807815; settings: cited from earlier work
[5] = RP-HPLC retention on Cosmosil Cholester column, buffer pH 7.4-acetonitrile; assay type: physicochemical; settings: for log kw, Cholester: extrapolated to buffer pH 7.4 as mobile phase, 25 °C; for s Cholester: slope of Soczewiński-Wachtmeister equation, acetonitrile φ 0.4–0.6
Protocol: as §1, §2, §3

[6] = design: method as in PMID 24157086, PMID 25528370; settings: cited from earlier work

| log kw, IAM [2] | s IAM [2] | log kw, ODS [3] | s ODS [3] | log kw, Cholester [5] | s Cholester [5] | SMILES | log BBexp. [1] | toxic effects for normal cells (normal cells) | antiproliferative activities in human cancer cells (human cancer cells) | other results |
| --- | --- | --- | --- | --- | --- | --- | --- | --- | --- | --- |
| – | – | – | – | – | – | Clc1cccc(Cl)c1NC1=NCCN1 [Compound 4205-90-7] | 0.19 | – | – | – |
| – | – | – | – | – | – | CN1C(=O)CC[C@H]1c1cccnc1 [Compound 486-56-6] | 0.04 | – | – | – |
| – | – | – | – | – | – | Brc1cc(Br)c(NC2=NCCN2)c(Br)c1 [Compound 38941-33-2] | 0.58 | – | – | – |
| – | – | – | – | – | – | COc1ccc2nc([S+]([O-])Cc3ncc(C)c(OC)c3C)[nH]c2c1 (stereo not shown) [Compound 73590-58-6] | −0.82 | – | – | – |
| – | – | – | – | – | – | Brc1cccc(Br)c1NC1=NCCN1 [Compound 4205-93-0] | 0.33 | – | – | – |
| – | – | – | – | – | – | CC(C)(C)OC(=O)c1ncn2c1[C@@H]1CCCN1C(=O)c1c(Br)cccc1-2 [Compound 84379-13-5] | −0.09 | – | – | – |
| – | – | – | – | – | – | Clc1ccc(NC2=NCCN2)c(Cl)c1 [Compound 23830-88-8] | 0.16 | – | – | – |
| 1.85 | 4.11 | 2.53 | 4.49 | 2.05 | 3.61 | CCc1nnc2n(c1=O)CCN2c1ccc(Cl)c(Cl)c1 [Compound 6] | – | less toxic effects | significant antiproliferative activities | toxicity to normal Vero cells (normal Vero cells): low toxicity; potency against Herpes simplex virus type 1 [4]: remarkable concentration-dependent potency; oxidatively-induced haemolysis of erythrocytes (erythrocytes): inhibiting the oxidatively-induced haemolysis |
| 0.96 | 2.72 | 1.74 | 3.48 | 1.20 | 2.78 | Cc1ccccc1N1CCn2c1nnc(-c1ccco1)c2=O [Compound 19] | – | less toxic effects | significant antiproliferative activities | – |
| 1.27 | 3.25 | 2.25 | 4.22 | 1.34 | 2.95 | O=c1c(-c2ccco2)nnc2n1CCN2c1ccccc1Cl [Compound 24] | – | less toxic effects | significant antiproliferative activities | – |
| 2.34 | 4.78 | 3.28 | 5.10 | 2.83 | 4.71 | O=c1c(Cc2ccccc2Cl)nnc2n1CCN2c1ccccc1 [Compound 42] | – | – | – | antinociceptive effect in mice [6]: strongest antinociceptive effect |
| 2.11 | 4.51 | 3.28 | 5.61 | 2.68 | 4.55 | CCOc1ccc(N2CCn3c2nnc(Cc2ccccc2)c3=O)cc1 [Compound 51] | – | – | – | antinociceptive effect in mice [6]: strongest antinociceptive effect |
| – | – | – | – | – | – | NC(N)=Nc1nc(-c2ccccc2)cs1 [Compound 2507-81-5] | −0.18 | – | – | – |
| 1.42 | 3.51 | 2.26 | 4.20 | 1.66 | 3.33 | Cc1cccc(N2CCn3c2nnc(-c2ccco2)c3=O)c1C [Compound 21] | – | less toxic effects | significant antiproliferative activities | – |
| 1.33 | 3.33 | 1.90 | 3.82 | 1.29 | 2.75 | COC(=O)Cc1nnc2n(c1=O)CCN2c1ccc(C)cc1 [Compound 8] | – | – | – | antinociceptive effect in mice [6]: strongest antinociceptive effect |
| 1.81 | 4.08 | 2.46 | 4.44 | 1.94 | 3.66 | O=c1c(CCc2ccccc2)nnc2n1CCN2c1ccccc1Cl [Compound 63] | – | less toxic effects | significant antiproliferative activities | – |
| 2.68 | 5.44 | 3.56 | 5.81 | 3.22 | 5.12 | O=c1c(CCc2ccccc2)nnc2n1CCN2c1ccc(Cl)cc1 [Compound 64] | – | less toxic effects | significant antiproliferative activities | – |
| – | – | – | – | – | – | CN1Cc2c(C(=O)OC(C)(C)C)ncn2-c2ccsc2C1=O [Compound 99632-94-7] | −0.25 | – | – | – |
| – | – | – | – | – | – | c1cncc([C@@H]2CCCN2)c1 [Compound 494-97-3] | 0.32 | – | – | – |
| – | – | – | – | – | – | Cc1ncc2n1-c1ccc(Cl)cc1C(c1ccccc1F)=NC2 [Compound 59467-70-8] | 0.32 | – | – | – |
| 2.57 | 5.32 | 3.41 | 5.20 | 3.19 | 5.30 | O=c1c(-c2ccccc2)nnc2n1CCN2c1ccc(Cl)cc1 [Compound 39] | – | less toxic effects | significant antiproliferative activities | – |
| – | – | – | – | – | – | CN1CCC[C@H]1c1cccnc1 [Compound 54-11-5] | 0.56 | – | – | – |
| 2.05 | 4.45 | 2.85 | 4.90 | 2.41 | 4.15 | CCOC(=O)Cc1nnc2n(c1=O)CCN2c1cccc(Cl)c1 [Compound 15] | – | less toxic effects | significant antiproliferative activities | – |
